Numbers after ± are expanded uncertainties.
Assays:
[1] = xn = mol fraction of the nth substance listed; conditions: Vibrating wire viscometry
[2] = Vibrating wire viscometry

CC(F)(F)F [1,1,1-trifluoroethane] + C=C(F)C(F)(F)F
[1], x1 = 0.5
Conditions | viscosity [mPa·s]
252.1 K, 2010 kPa, Liquid | 0.2421 ± 0.025
252.1 K, 2520 kPa, Liquid | 0.2439 ± 0.025
252.1 K, 3030 kPa, Liquid | 0.2451 ± 0.025
273.2 K, 910 kPa, Liquid | 0.1824 ± 0.019
273.2 K, 2010 kPa, Liquid | 0.1859 ± 0.019
273.2 K, 2500 kPa, Liquid | 0.187 ± 0.019
273.2 K, 3000 kPa, Liquid | 0.1888 ± 0.019
294.4 K, 1250 kPa, Liquid | 0.1424 ± 0.015
294.4 K, 2010 kPa, Liquid | 0.1453 ± 0.015
294.4 K, 2510 kPa, Liquid | 0.1469 ± 0.015
294.4 K, 3020 kPa, Liquid | 0.1482 ± 0.015
323.2 K, 970 kPa, Gas | 0.0124 ± 0.0015
343.2 K, 1060 kPa, Gas | 0.0133 ± 0.0016
343.2 K, 1840 kPa, Gas | 0.014 ± 0.0016
363.2 K, 2040 kPa, Gas | 0.0149 ± 0.0017
363.2 K, 2750 kPa, Gas | 0.016 ± 0.0018
383.2 K, 3070 kPa, Gas | 0.0168 ± 0.0019

FC(F)C(F)(F)F [pentafluoroethane]
[2]
Conditions | viscosity [mPa·s]
273.2 K, 1440 kPa, Liquid | 0.2154 ± 0.022
273.2 K, 3260 kPa, Liquid | 0.22 ± 0.022
273.2 K, 4880 kPa, Liquid | 0.224 ± 0.023
273.2 K, 6650 kPa, Liquid | 0.2283 ± 0.023
273.2 K, 8370 kPa, Liquid | 0.2323 ± 0.024
273.2 K, 10120 kPa, Liquid | 0.2364 ± 0.024
273.2 K, 11770 kPa, Liquid | 0.2403 ± 0.024
273.2 K, 13330 kPa, Liquid | 0.2438 ± 0.025
293.3 K, 1680 kPa, Liquid | 0.1739 ± 0.018
293.3 K, 4160 kPa, Liquid | 0.1801 ± 0.018
293.3 K, 6420 kPa, Liquid | 0.1854 ± 0.019
293.3 K, 8490 kPa, Liquid | 0.1902 ± 0.019
293.3 K, 10920 kPa, Liquid | 0.1952 ± 0.02
293.3 K, 13210 kPa, Liquid | 0.2004 ± 0.021
293.3 K, 15530 kPa, Liquid | 0.2052 ± 0.021
293.3 K, 17700 kPa, Liquid | 0.2097 ± 0.021
313.2 K, 1960 kPa, Liquid | 0.14 ± 0.015
313.2 K, 3810 kPa, Liquid | 0.1447 ± 0.015
313.2 K, 5550 kPa, Liquid | 0.1487 ± 0.015
313.2 K, 7210 kPa, Liquid | 0.1525 ± 0.016
313.2 K, 9450 kPa, Liquid | 0.1576 ± 0.016
313.2 K, 11270 kPa, Liquid | 0.1616 ± 0.017
313.2 K, 13140 kPa, Liquid | 0.1653 ± 0.017
333.2 K, 630 kPa, Gas | 0.0116 ± 0.0014
333.2 K, 810 kPa, Gas | 0.0116 ± 0.0014
333.2 K, 1010 kPa, Gas | 0.0117 ± 0.0014
333.2 K, 1300 kPa, Gas | 0.0117 ± 0.0014

FC(F)C(F)(F)F [pentafluoroethane] + CC(F)F
[1], x1 = 0.5
Conditions | viscosity [mPa·s]
252.1 K, 1020 kPa, Liquid | 0.2923 ± 0.03
252.1 K, 2000 kPa, Liquid | 0.2944 ± 0.03
252.1 K, 2500 kPa, Liquid | 0.2966 ± 0.03
252.1 K, 3000 kPa, Liquid | 0.299 ± 0.03
252.1 K, 4000 kPa, Liquid | 0.3024 ± 0.031
263.1 K, 1510 kPa, Liquid | 0.2558 ± 0.026
263.1 K, 2010 kPa, Liquid | 0.2574 ± 0.026
263.1 K, 2510 kPa, Liquid | 0.2593 ± 0.026
263.1 K, 3020 kPa, Liquid | 0.2612 ± 0.026
263.1 K, 4010 kPa, Liquid | 0.2643 ± 0.027
274.5 K, 1510 kPa, Liquid | 0.2181 ± 0.022
274.5 K, 2000 kPa, Liquid | 0.2198 ± 0.022
274.5 K, 2510 kPa, Liquid | 0.222 ± 0.023
274.5 K, 3020 kPa, Liquid | 0.2233 ± 0.023
274.5 K, 4010 kPa, Liquid | 0.2261 ± 0.023
294.3 K, 1200 kPa, Liquid | 0.1676 ± 0.017
294.3 K, 1500 kPa, Liquid | 0.1688 ± 0.017
294.3 K, 2000 kPa, Liquid | 0.1704 ± 0.017
294.3 K, 3000 kPa, Liquid | 0.1737 ± 0.018
294.3 K, 4000 kPa, Liquid | 0.1777 ± 0.018
323.2 K, 990 kPa, Gas | 0.0124 ± 0.0015
343.2 K, 1090 kPa, Gas | 0.0132 ± 0.0015
343.2 K, 1800 kPa, Gas | 0.014 ± 0.0016
363.2 K, 2010 kPa, Gas | 0.0147 ± 0.0017
363.2 K, 2780 kPa, Gas | 0.0157 ± 0.0018
383.2 K, 3130 kPa, Gas | 0.0165 ± 0.0018

F/C=C/C(F)(F)F [trans-1,3,3,3-tetrafluoropropene] + C=C(F)C(F)(F)F
[1], x1 = 0.5
Conditions | viscosity [mPa·s]
252.3 K, 1000 kPa, Liquid | 0.2935 ± 0.03
252.3 K, 2010 kPa, Liquid | 0.2969 ± 0.03
252.3 K, 3020 kPa, Liquid | 0.3004 ± 0.03
273.2 K, 1000 kPa, Liquid | 0.2271 ± 0.023
273.2 K, 1960 kPa, Liquid | 0.2316 ± 0.024
273.2 K, 2980 kPa, Liquid | 0.2352 ± 0.024
294.2 K, 1010 kPa, Liquid | 0.179 ± 0.018
294.2 K, 1980 kPa, Liquid | 0.1824 ± 0.019
294.2 K, 3000 kPa, Liquid | 0.1858 ± 0.019
348.2 K, 950 kPa, Gas | 0.0132 ± 0.0015
368.2 K, 1050 kPa, Gas | 0.0139 ± 0.0016
368.2 K, 1710 kPa, Gas | 0.0148 ± 0.0017
388.2 K, 1910 kPa, Gas | 0.0156 ± 0.0018
388.2 K, 2700 kPa, Gas | 0.0168 ± 0.0019
403.2 K, 3020 kPa, Gas | 0.0175 ± 0.0019

F/C=C/C(F)(F)F [trans-1,3,3,3-tetrafluoropropene] + CC(F)(F)F
[1], x2 = 0.5
Conditions | viscosity [mPa·s]
252.3 K, 1030 kPa, Liquid | 0.2653 ± 0.027
252.3 K, 2020 kPa, Liquid | 0.2688 ± 0.027
252.3 K, 3090 kPa, Liquid | 0.2721 ± 0.028
273.2 K, 1070 kPa, Liquid | 0.2044 ± 0.021
273.2 K, 2060 kPa, Liquid | 0.208 ± 0.021
273.2 K, 3130 kPa, Liquid | 0.2113 ± 0.022
293.2 K, 1130 kPa, Liquid | 0.1573 ± 0.016
293.2 K, 2080 kPa, Liquid | 0.1612 ± 0.017
293.2 K, 3090 kPa, Liquid | 0.1652 ± 0.017
323.2 K, 970 kPa, Gas | 0.0123 ± 0.0015
346.2 K, 1080 kPa, Gas | 0.0131 ± 0.0015
346.2 K, 1910 kPa, Gas | 0.0137 ± 0.0016
363.2 K, 2120 kPa, Gas | 0.0146 ± 0.0017
363.2 K, 2720 kPa, Gas | 0.0155 ± 0.0018
383.2 K, 3040 kPa, Gas | 0.0162 ± 0.0018

F/C=C/C(F)(F)F [trans-1,3,3,3-tetrafluoropropene] + FC(F)C(F)(F)F
[1], x2 = 0.4933
Conditions | viscosity [mPa·s]
252.3 K, 2010 kPa, Liquid | 0.3181 ± 0.032
252.3 K, 3020 kPa, Liquid | 0.3224 ± 0.033
273.2 K, 1290 kPa, Liquid | 0.2388 ± 0.024
273.2 K, 1990 kPa, Liquid | 0.2407 ± 0.025
273.2 K, 3010 kPa, Liquid | 0.2451 ± 0.025
294.2 K, 1240 kPa, Liquid | 0.1821 ± 0.019
294.2 K, 2000 kPa, Liquid | 0.1861 ± 0.019
294.2 K, 3010 kPa, Liquid | 0.1906 ± 0.019
323.2 K, 960 kPa, Gas | 0.0133 ± 0.0016
343.2 K, 1060 kPa, Gas | 0.0143 ± 0.0016
343.2 K, 1770 kPa, Gas | 0.0149 ± 0.0017
363.2 K, 1960 kPa, Gas | 0.016 ± 0.0018
363.2 K, 2770 kPa, Gas | 0.0173 ± 0.0019
383.2 K, 3110 kPa, Gas | 0.0182 ± 0.002

— the NIST ThermoML archive (doi:10.1021/acs.jced.8b01039)
